# Patent publication US7259004B1, “Endophytic streptomycetes from higher plants with biological activity” (Montana State University, priority 2002, dated 2007)
# Legend:
# [1] = system: Pseudomonas aeruginosa ATCC 27853; assay: disk diffusion assay; type: cell-based; conditions: 10 micrograms per disk; ciprofloxacin 5, vancomycin 30 micrograms per disk; 35° C. Also: key: R = resistant.
# Vibrio fischeri PIC 345 = assay: disk diffusion assay; type: cell-based; conditions: 10 micrograms per disk; ciprofloxacin 5, vancomycin 30 micrograms per disk; 35° C.
# [2] = system: Enterococcus faecalis ATCC 29212; assay: disk diffusion assay; type: cell-based; conditions: 10 micrograms per disk; ciprofloxacin 5, vancomycin 30 micrograms per disk; 35° C.
# [3] = system: Enterococcus faecalis ATCC 51299; assay: disk diffusion assay; type: cell-based; conditions: 10 micrograms per disk; ciprofloxacin 5, vancomycin 30 micrograms per disk; 35° C.
# [4] = system: Staphylococcus aureus ATCC 29213; assay: disk diffusion assay; type: cell-based; conditions: 10 micrograms per disk; ciprofloxacin 5, vancomycin 30 micrograms per disk; 35° C.
# [5] = system: Acinetobacter sp. ATCC 49137; assay: disk diffusion assay; type: cell-based; conditions: 10 micrograms per disk; ciprofloxacin 5, vancomycin 30 micrograms per disk; grown at 30° C.
# [6] = system: Neisseria gonnorhea ATCC 49226; assay: disk diffusion assay; type: cell-based; conditions: 10 micrograms per disk; ciprofloxacin 5, vancomycin 30 micrograms per disk; GC agar with 1% growth supplement with 5% CO2
# [7] = system: Streptococcus pneumoniae ATCC 49619; assay: disk diffusion assay; type: cell-based; conditions: 10 micrograms per disk; ciprofloxacin 5, vancomycin 30 micrograms per disk; MHA with 5% dsb. and 5% CO2
# Bacillus anthracis K8902 = type: cell-based; conditions: 10 micrograms per disk; ciprofloxacin 5, vancomycin 30 micrograms per disk; 35° C.
# [8] = system: Escherichia coli ATCC 25922; assay: disk diffusion assay; type: cell-based; conditions: 10 micrograms per disk; penicillin G 10 units per disk; 35° C. Also: key: R = resistant.
# S. epidermis ATCC 12228 = assay: disk diffusion assay; type: cell-based, Staphylococcus epidermidis; conditions: 10 micrograms per disk; 35° C.
# [9] = system: S. maltophilia ATCC 13637; assay: disk diffusion assay; type: cell-based, Stenotrophomas maltophilia; conditions: 10 micrograms per disk; 35° C.
# [10] = system: Shigella dysenteriae ATCC 11835; assay: disk diffusion assay; type: cell-based; conditions: 10 micrograms per disk; 35° C.
# [11] = system: Candida albicans ATCC 24433; assay: disk diffusion assay; type: cell-based; conditions: 10 micrograms per disk; 35° C. Also: key: R = resistant.
# [12] = system: Candida albicans ATCC 90028; assay: disk diffusion assay; type: cell-based; conditions: 10 micrograms per disk; 35° C. Also: key: R = resistant.
# [13] = system: Candida parasilosis ATCC 22019; assay: disk diffusion assay; type: cell-based, Candida parapsilosis; conditions: 10 micrograms per disk; 35° C. Also: key: R = resistant.
# [14] = system: Candida tropicalis ATCC 750; assay: disk diffusion assay; type: cell-based; conditions: 10 micrograms per disk; 35° C. Also: key: R = resistant.
# Candida krusei ATCC 6258 = assay: disk diffusion assay; type: cell-based; conditions: 10 micrograms per disk; 35° C.
# [15] = system: Candida glabrata ATCC 2001; assay: disk diffusion assay; type: cell-based; conditions: 10 micrograms per disk; 35° C. Also: key: R = resistant.
# [16] = system: Candida parasdosis ATCC 90018; assay: disk diffusion assay; type: cell-based, Candida parapsilosis; conditions: 10 micrograms per disk; 35° C. Also: key: R = resistant.
# Pseudomonas syringae = assay: microbroth dilution MIC, plant associated microorganisms; type: cell-based; conditions: PD broth
# Procedure: (§1) Incubation was for 48 hours at 23° C. A plant pathogenic strain of Pseudomonas syringae was also tested using the same PD broth medium and with concentrations of colony forming units as given above. The organisms were obtained from the Montana State University plant pathogen culture collection administered by Dr. […] The relative activities against plant pathogenic fungi ranged from a few tenths of a microgram up to thirty micrograms. Table 2 provides the results of tests of inhibitory activity of the munumbicins against various plant-pathogenic fungi and one pathogenic bacterium. The data are reported as MIC values in micrograms/ml.
# Pythium ultimum = assay: as above; type: cell-based; conditions: PD broth, 48 hours at 23° C.
# Procedure: as §1
# Sclerotinia sclerotiorum = assay: as above; type: cell-based; conditions: PD broth, 48 hours at 23° C.
# Procedure: as §1
# [17] = system: Staphylococcus aureus ATCC 33591 (MRSA); assay: microbroth dilution MIC; type: cell-based; conditions: methicillin resistant strain; first listing in Table 4
# [18] = system: Enterococcus faecalis ATCC 51299 (VRE); assay: microbroth dilution MIC; type: cell-based; conditions: resistant to vancomycin; first listing in Table 4
# [19] = system: Human Breast Cancer Epithelial BT-20; assay: CellTiter 96 Aqueous Non-Radioactive Cell Proliferation Assay; type: cell-based; conditions: 96-144 hours; Table 7
# Procedure: (§2) The munumbicins were then tested against three human cancer cell lines (ATCC) and human primary mammary epithelial cells (HMECs) (Clonetics; Biowhittaker, Walkersville, Md.) using a CellTiter 96® Aqueous Non-Radioactive Cell Proliferation Assay kit from Promega (Madison, Wis.). The cell lines were A-549 (lung epithelial carcinoma, ATCC CCL-185), ME-180 (cervical epithelial epidermoid carcinoma, ATCC HTB-33), and BT-20 (breast epithelial cancer, ATCC HTB-19), and were grown in the media recommended by ATCC. The primary mammary cells were cultured as recommended by the manufacturer in mammary epithelial cell growth media (MEGM®). […] After seeding, the cells were incubated for five hours at 37° C. before addition of the munumbicins. Two-fold serial dilutions of the munumbicins were made in the culture medium, and a volume equal to that of the seeded cells for each dilution was added to three wells of cells. Each plate also contained some wells with cells plus medium only and some wells with medium only. […] The A-549 and ME-180 cells were incubated for 48 hours. […] The plates were incubated at 37° C. for one to four hours, and the OD490 was determined. The OD reading of all wells was corrected for background by subtracting the reading of wells containing medium only. […] Kakadumycin A was tested against three human cancer cell lines (ATCC) and human primary mammary epithelial cells using the procedure described above for the munumbicins. Kadadumycin B was tested against one human cancer cell line.
# [20] = system: Human Cervical Cancer Epithelial ME180; assay: as above; type: cell-based; conditions: 48 hours; Table 7
# Procedure: as §2
# [21] = system: Human Lung Cancer Epithelial A549; assay: as above; type: cell-based; conditions: 48 hours; Table 7
# Procedure: as §2
# [22] = system: Human Primary Mammary Epithelial HMEC; assay: as above; type: cell-based; conditions: 48 hours; Table 7
# Procedure: as §2
# [23] = system: gram positive bacteria including Staphylococcus species, Streptococcus pneumoniae, Enterococcus species, Bacillus subtilis, and Listeria monocytogenes; assay: activity against Gram positive bacteria (general statements); type: cell-based
# brine shrimp = brine shrimp assays; conditions: preliminary assays
# Cryptococcus neoformans = assay: microbroth dilution MIC
# Aspergillus fumigatus = assay: microbroth dilution MIC
# [24] = system: Plasmodium falciparum strain CSC-1 (Honduras); assay: antimalarial assay, 3H-phenylalanine radiobioassay in human red blood cells; conditions: human red blood cells, 3H-phenylalanine; standard deviation of the mean, three experiments
substance,measurement,setting,value
munumbicin A,"diameter of the zone of inhibition, Pseudomonas aeruginosa ATCC 27853",[1],R
same,"diameter of the zone of inhibition, Vibrio fischeri PIC 345",Vibrio fischeri PIC 345,R
same,"diameter of the zone of inhibition, Enterococcus faecalis ATCC 29212",[2],R
same,"diameter of the zone of inhibition, Enterococcus faecalis ATCC 51299",[3],R
same,"diameter of the zone of inhibition, Staphylococcus aureus ATCC 29213",[4],R
same,"diameter of the zone of inhibition, Acinetobacter sp. ATCC 49137",[5],R
same,"diameter of the zone of inhibition, Neisseria gonnorhea ATCC 49226",[6],9 mm
same,"diameter of the zone of inhibition, Streptococcus pneumoniae ATCC 49619",[7],R
same,"diameter of the zone of inhibition, Bacillus anthracis K8902",Bacillus anthracis K8902,9.5 mm
same,"diameter of the zone of inhibition, Escherichia coli ATCC 25922",[8],R
same,"diameter of the zone of inhibition, S. epidermis ATCC 12228",S. epidermis ATCC 12228,9 mm
same,"diameter of the zone of inhibition, S. maltophilia ATCC 13637",[9],R
same,"diameter of the zone of inhibition, Shigella dysenteriae ATCC 11835",[10],R
same,"diameter of the zone of inhibition, Candida albicans ATCC 24433",[11],R
same,"diameter of the zone of inhibition, Candida albicans ATCC 90028",[12],R
same,"diameter of the zone of inhibition, Candida parasilosis ATCC 22019",[13],R
same,"diameter of the zone of inhibition, Candida tropicalis ATCC 750",[14],R
same,"diameter of the zone of inhibition, Candida krusei ATCC 6258",Candida krusei ATCC 6258,R
same,"diameter of the zone of inhibition, Candida glabrata ATCC 2001",[15],R
same,"diameter of the zone of inhibition, Candida parasdosis ATCC 90018",[16],R
same,MIC Pseudomonas syringae,Pseudomonas syringae,15.6 micrograms/ml
same,MIC Pythium ultimum,Pythium ultimum,2.0 micrograms/ml
same,MIC Sclerotinia sclerotiorum,Sclerotinia sclerotiorum,8.0 micrograms/ml
same,MIC Staphylococcus aureus ATCC 33591,[17],not active
same,MIC Enterococcus faecalis ATCC 51299,[18],8 micrograms/ml
same,IC50 Human Breast Cancer Epithelial BT-20,[19],0.19 micrograms/ml
same,IC50 Human Cervical Cancer Epithelial ME180,[20],0.51 micrograms/ml
same,IC50 Human Lung Cancer Epithelial A549,[21],1 micrograms/ml
same,IC50 Human Primary Mammary Epithelial HMEC,[22],0.331 micrograms/ml
same,activity against Gram positive bacteria incl. drug resistant strains (in words),[23],shows activity
same,LC50 brine shrimp,brine shrimp,3.3 micrograms/ml
same,MIC Cryptococcus neoformans,Cryptococcus neoformans,10 micrograms/ml
same,MIC Aspergillus fumigatus,Aspergillus fumigatus,20 micrograms/ml
same,IC50 Plasmodium falciparum,[24],0.175 ± 0.106 µg/mL
